Test results as given in US11274115B2, “Imidazoquinoline derivatives and their use in therapy” (GLAXOSMITHKLINE BIOLOGICALS SA, priority 2016, dated 2022).

Columns and labels:
Format in all cases: cell-based
[1] = tested on: human peripheral blood mononuclear cells (hPBMCs); experiment: TNF-α induction in hPBMCs; conditions: 24 h, FIG. 13
Method: (§1) Assays to Measure Cytokine Induction
(§2) Test compounds were evaluated for cytokine induction in human peripheral blood mononuclear cells (hPBMCs).
(§3) Primary human PBMCs were isolated from fresh blood from healthy donors via Ficoll gradient separation and plated at 0.5×10^6 cells/well in 96-well tissue culture plates (RPMI-1640 plus 10% FBS). hPBMCs were maintained with RPMI-1640 culture media (Invitrogen, Grand Island, N.Y.), antibiotics (Invitrogen) and 10% FBS (Sigma).
(§4) Incubation and Assays for IFN-γ, IFN-α and TNF-α
(§5) hPBMCs were stimulated for 24 h with aqueous formulations of test compounds. Culture supernatants were analyzed for TNF-α and IFN-γ induction using multiplex kits (FluoroKine multiplex kits from R&D Systems, Minneapolis, Minn.) and for IFN-α induction using human IFN-α VeriKine ELISA kit (Pestka Biomedical Laboratories, Inc., Piscataway, N.J.).

human TLR7 = molecular target: T1, human TLR7 (Homo sapiens, UniProt Q9NYK1); experiment: hTLR7 agonist reporter assay in HEK293 cells (NFκB-SEAP)
T1 construct: host or cells: HEK293
T1 sequence (Q9NYK1 27-1049): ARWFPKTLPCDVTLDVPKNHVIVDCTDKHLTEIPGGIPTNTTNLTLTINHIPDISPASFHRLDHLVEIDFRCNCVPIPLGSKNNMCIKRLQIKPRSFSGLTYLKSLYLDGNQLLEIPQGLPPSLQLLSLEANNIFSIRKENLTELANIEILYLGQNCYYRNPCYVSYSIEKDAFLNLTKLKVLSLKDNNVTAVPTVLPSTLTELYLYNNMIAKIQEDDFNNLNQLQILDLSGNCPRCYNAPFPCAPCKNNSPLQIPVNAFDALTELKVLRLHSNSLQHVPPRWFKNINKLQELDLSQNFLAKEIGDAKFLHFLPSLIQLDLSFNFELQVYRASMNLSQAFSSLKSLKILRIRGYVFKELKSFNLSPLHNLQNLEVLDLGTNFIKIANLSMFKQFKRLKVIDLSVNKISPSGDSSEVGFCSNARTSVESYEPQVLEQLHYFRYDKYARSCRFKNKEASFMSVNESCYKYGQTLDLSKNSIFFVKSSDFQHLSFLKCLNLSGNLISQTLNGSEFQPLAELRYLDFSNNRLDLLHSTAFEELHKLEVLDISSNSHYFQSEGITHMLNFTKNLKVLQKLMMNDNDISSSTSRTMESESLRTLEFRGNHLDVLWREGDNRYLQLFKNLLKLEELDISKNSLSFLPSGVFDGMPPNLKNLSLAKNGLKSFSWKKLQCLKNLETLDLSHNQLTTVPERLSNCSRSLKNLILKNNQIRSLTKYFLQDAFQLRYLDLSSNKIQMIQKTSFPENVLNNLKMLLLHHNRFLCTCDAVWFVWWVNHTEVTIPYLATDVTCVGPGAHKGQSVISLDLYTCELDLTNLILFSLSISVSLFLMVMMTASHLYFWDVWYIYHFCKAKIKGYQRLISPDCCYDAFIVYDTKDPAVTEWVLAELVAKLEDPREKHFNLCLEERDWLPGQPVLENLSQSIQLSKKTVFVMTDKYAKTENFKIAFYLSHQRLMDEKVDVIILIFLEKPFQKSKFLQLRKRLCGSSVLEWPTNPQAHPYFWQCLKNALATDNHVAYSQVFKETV
Method: (§6) Assay for hTLR7 and hTLR8 Agonist Activity in HEK-293 Cells
(§7) Determination of TLR agonist activity was performed using the HEK293 […]. This assay measures TLR7 and TLR8 selectivity and potency of the compounds tested. HEK293 cells expressing human TLR7 or TLR8 and NFκB responsive Secreted Embryonic Alkaline Phosphatase (SEAP) reporter gene were obtained from InvivoGen (San Diego, Calif.). These cells were maintained in culture media of Dulbecco's Modified Eagle Medium (DMEM) (Invitrogen, Grand Island, N.Y.), 10% Fetal Bovine Serum (FBS) (Sigma, St. Louis, Mo.) and selection antibiotics (Invitrogen, and Invivogen). HEK293 stably transfected with human TLR7 (hTLR7) or human TLR8 (hTLR8) were stimulated for 24 h with aqueous formulations of test compounds and culture supernatants were analyzed for NFκB activation using the colorimetric SEAP detection kit QuantBlue (InvivoGen).

[2] = tested on: human peripheral blood mononuclear cells (hPBMCs); experiment: IFN-γ induction in hPBMCs; conditions: 24 h, FIG. 11, another occasion
Method: as §1, §2, §3, §4, §5

human TLR8 = molecular target: T2, human TLR8 (Homo sapiens, UniProt Q9NR97); experiment: hTLR8 agonist reporter assay in HEK293 cells (NFκB-SEAP)
T2 construct: host or cells: HEK293
T2 sequence (Q9NR97 27-1041): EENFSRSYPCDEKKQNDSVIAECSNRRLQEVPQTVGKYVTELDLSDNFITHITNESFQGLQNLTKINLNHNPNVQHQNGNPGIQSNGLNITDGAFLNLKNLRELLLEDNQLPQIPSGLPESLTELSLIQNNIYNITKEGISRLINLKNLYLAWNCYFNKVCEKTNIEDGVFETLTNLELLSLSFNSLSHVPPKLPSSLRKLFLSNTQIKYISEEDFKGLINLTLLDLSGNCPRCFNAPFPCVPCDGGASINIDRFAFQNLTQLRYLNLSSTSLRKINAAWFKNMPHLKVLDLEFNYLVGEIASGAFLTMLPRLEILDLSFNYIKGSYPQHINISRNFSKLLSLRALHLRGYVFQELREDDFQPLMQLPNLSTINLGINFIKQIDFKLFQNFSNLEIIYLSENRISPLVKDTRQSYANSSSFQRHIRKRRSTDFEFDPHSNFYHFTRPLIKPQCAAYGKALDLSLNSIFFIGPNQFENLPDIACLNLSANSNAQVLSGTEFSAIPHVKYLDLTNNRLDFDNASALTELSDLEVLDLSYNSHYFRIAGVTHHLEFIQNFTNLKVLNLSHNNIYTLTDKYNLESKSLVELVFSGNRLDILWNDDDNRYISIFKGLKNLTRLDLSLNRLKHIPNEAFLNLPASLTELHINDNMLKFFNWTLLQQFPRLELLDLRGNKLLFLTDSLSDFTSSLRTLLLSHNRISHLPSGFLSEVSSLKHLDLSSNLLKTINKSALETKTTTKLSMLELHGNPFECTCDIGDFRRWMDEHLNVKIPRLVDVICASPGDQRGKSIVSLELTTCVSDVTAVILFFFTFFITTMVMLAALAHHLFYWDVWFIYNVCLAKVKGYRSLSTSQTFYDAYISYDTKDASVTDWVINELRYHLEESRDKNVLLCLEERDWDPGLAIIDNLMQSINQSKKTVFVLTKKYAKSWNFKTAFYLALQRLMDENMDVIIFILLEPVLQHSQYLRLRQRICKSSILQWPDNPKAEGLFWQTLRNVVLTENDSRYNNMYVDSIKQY
Method: as §6, §7

[3] = tested on: human peripheral blood mononuclear cells (hPBMCs); experiment: IFN-α induction in hPBMCs; conditions: 24 h, FIG. 12, another occasion
Method: as §1, §2, §3, §4, §5

EC50 (human TLR7; Table 2, FIG. 3, another occasion, * = only very low levels of NFKB activation were detected, read-out: hTLR7 ED50): 3.4 µM | hTLR7/8 ratio (human TLR7; Table 2, hTLR7 ED50 over hTLR8 ED50): 1.2 | hTLR7 agonist activity, in words (human TLR7; text on Table 2, FIG. 3): potent agonist of hTLR7 and hTLR8 | EC50 (human TLR8; Table 2, FIG. 4, another occasion, * = only very low levels of NFKB activation were detected, read-out: hTLR8 ED50): 2.8 µM | hTLR8 agonist activity, in words (human TLR8; text on Table 2, FIG. 4): potent agonist of hTLR7 and hTLR8
SMILES: CCCCCCCC/C=C\CCCCCCCC(=O)OC[C@@H](O)COP(=O)(O)OCCOc1ccc2c(c1)nc(N)c1nc(CCCC)n(CCO)c12 [Example 3]
TNF-α induction, in words [1]: potent at inducing TNF-α | relative potency hTLR7 versus hTLR8, in words (human TLR7; Table 2): approximately equally potent at both receptors | IFN-γ induction, in words [2]: potent at inducing IFN-γ and each was more potent than Comparative Example 3 | IFN-α induction, in words [3]: more potent at inducing IFN-α than Comparative Examples 1, 2 and 3
